This is an account of results in patent publication US10266497B2 (ABIDE THERAPEUTICS, INC., priority 2017, dated 2019).

pIC50: −log10 of the molar value.

The target of test [1] is T1, MAGL (Homo sapiens, UniProt Q99685).
T1 sequence (Q99685 1-303): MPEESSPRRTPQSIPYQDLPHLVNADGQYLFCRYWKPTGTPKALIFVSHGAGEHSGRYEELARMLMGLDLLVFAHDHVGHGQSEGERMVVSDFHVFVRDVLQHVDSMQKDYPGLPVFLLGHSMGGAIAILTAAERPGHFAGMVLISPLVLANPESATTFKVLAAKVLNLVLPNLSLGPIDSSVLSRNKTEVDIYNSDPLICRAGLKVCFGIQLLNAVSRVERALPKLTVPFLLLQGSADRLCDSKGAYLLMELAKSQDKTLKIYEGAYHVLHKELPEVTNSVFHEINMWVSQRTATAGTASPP
The test can be described thus: In vitro competitive activity-based protein profiling, MAGL, human. Particulars: read-out: MAGL % inh. 1 μM (human).
Method: (§1) Biological Evaluation In Vitro Competitive Activity-Based Protein Profiling.
(§2) Proteomes (mouse brain membrane fraction for mouse assays; human prefrontal cortex membrane fractions for human assays) (50 mL, 1.0 mg/mL total protein concentration) were preincubated with varying concentrations of inhibitors at 37° C. After 30 min, FP-Rh (1.0 mL, 50 mM in DMSO) was added and the mixture was incubated for another 30 min at 37° C. Reactions were quenched with SDS loading buffer (15 μL—4λ) and run on SDS-PAGE.

The target of test [2] is T2, MAGL (Mus musculus, UniProt O35678).
T2 sequence (O35678 1-303): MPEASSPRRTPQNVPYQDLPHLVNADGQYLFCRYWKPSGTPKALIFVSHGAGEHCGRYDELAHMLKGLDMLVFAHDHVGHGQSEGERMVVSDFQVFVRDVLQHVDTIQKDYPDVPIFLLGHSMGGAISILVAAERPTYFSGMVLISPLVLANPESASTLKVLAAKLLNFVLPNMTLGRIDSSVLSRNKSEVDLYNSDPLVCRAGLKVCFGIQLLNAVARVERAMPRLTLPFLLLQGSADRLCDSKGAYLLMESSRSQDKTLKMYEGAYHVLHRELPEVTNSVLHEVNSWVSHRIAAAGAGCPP
In words: In vitro competitive activity-based protein profiling, MAGL, mouse. Particulars: read-out: MAGL % inh. 1 μM (mouse).

The target in test [3] is T3, FAAH (Homo sapiens, UniProt O00519).
T3 sequence (O00519 1-579): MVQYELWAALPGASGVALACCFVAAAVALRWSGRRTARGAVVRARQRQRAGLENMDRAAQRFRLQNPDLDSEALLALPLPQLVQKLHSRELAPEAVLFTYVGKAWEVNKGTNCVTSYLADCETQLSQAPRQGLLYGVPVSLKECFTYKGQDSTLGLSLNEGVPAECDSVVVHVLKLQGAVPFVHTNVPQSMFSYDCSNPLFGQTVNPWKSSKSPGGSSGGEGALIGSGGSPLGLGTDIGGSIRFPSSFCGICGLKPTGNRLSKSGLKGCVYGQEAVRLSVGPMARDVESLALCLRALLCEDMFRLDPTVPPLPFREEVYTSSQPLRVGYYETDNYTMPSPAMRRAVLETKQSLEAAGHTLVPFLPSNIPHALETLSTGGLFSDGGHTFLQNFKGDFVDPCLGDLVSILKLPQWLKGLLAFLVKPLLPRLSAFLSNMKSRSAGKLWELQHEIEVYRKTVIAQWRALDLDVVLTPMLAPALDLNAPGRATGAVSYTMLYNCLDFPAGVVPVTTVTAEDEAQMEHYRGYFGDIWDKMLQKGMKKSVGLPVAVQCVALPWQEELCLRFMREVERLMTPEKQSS
The test can be described thus: In vitro competitive activity-based protein profiling, FAAH, human. To be noted: for inhibition at 1 µM: read-out: FAAH % inh. 1 μM (human).

Test [4] concerns the target T4, FAAH (Mus musculus, UniProt O08914).
T4 sequence (O08914 1-579): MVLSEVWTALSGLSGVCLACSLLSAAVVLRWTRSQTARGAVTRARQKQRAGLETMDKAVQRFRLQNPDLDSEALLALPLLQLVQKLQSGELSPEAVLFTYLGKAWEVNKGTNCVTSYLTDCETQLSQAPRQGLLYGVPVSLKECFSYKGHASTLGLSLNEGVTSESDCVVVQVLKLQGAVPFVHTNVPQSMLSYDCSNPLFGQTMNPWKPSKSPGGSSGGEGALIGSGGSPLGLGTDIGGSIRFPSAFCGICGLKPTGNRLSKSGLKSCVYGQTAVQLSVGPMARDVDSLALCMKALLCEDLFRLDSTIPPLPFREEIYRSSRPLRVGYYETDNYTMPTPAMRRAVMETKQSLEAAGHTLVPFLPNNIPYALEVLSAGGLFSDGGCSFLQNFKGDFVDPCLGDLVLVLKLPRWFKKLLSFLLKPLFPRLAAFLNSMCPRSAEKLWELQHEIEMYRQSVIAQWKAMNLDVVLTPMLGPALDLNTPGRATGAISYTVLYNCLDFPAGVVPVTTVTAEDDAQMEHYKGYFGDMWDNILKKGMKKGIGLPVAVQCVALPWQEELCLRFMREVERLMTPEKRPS
In words: In vitro competitive activity-based protein profiling, FAAH, mouse. To be noted: read-out: FAAH % inh. 1 μM (mouse).
Method: as §1, §2

In test [5] the target is T2, MAGL. The test can be described thus: Mouse brain proteomes from inhibitor treated mice (oral gavage, sacrificed 4 h after administration). It is filed as in vivo. Also noted: mouse brain membrane fraction for mouse assays; from tissue; host or cells: mouse brain (membrane fraction in vitro; brain proteomes of treated C57Bl/6J mice in vivo). To be noted: 5 mg/kg oral gavage, brain proteome 4 h after administration, read-out: MAGL % inh. 5 mg/kg (mouse).

For test [6], the target named is T4, FAAH. In words: Mouse brain proteomes from inhibitor treated mice (oral gavage, sacrificed 4 h after administration), FAAH. It is filed as in vivo. Also noted: mouse brain membrane fraction for mouse assays; from tissue; host or cells: mouse brain (membrane fraction in vitro; brain proteomes of treated C57Bl/6J mice in vivo). Particulars: 5 mg/kg oral gavage, brain proteome 4 h after administration, read-out: FAAH % inh. 5 mg/kg (mouse).

On to `O=C(O)c1ccn(C(=O)N2C[C@H]3C[C@H](OCc4ccc(Oc5ccc(Cl)cc5)cc4)C[C@H]3C2)n1` [Example 55, 1-(trans-5-((4-(4-chlorophenoxy)benzyl)oxy)octa-hydrocyclopenta[c]pyrrole-2-carbonyl)-1H-pyrazole-3-carboxylic acid], for which the inhibition at 1 µM at MAGL [1], at MAGL [2], at FAAH [3] and on FAAH [4] was more than 75% each time. Besides, the inhibition at 5 mg/kg at MAGL [5] and on FAAH [6] was 0 to 25% throughout.

Take `CC(C)(O)C1CCN(c2cc(C(F)(F)F)ccc2CN2CCN(C(=O)n3ccc(C(=O)O)n3)CC2)CC1` [Example 109, 1-(4-(2-(4-(2-hydroxypropan-2-yl)piperidin-1-yl)-4-(trifluoromethyl)benzyl)piperazine-1-carbonyl)-1H-pyrazole-3-carboxylic acid]: the inhibition at 1 µM was more than 75% on MAGL [1], more than 75% on MAGL [2], 0 to 25% on FAAH [3] and 0 to 25% on FAAH [4]. For the same compound, the inhibition at 5 mg/kg on MAGL [5] and on FAAH [6] was 0 to 25% in each case.

Regarding `O=C(O)c1ccn(C(=O)N2CCN(Cc3ccc(Cl)cc3N3C4CCC3COC4)CC2)n1` [Example 105, 1-(4-(2-(3-oxa-8-azabicyclo[3.2.1]octan-8-yl)-4-chlorobenzyl)piper-azine-1-carbonyl)-1H-pyrazole-3-carboxylic acid], the inhibition at 1 µM on MAGL [1] is more than 75%; on MAGL [2] it was more than 75%; at FAAH [3], 0 to 25%; on FAAH [4] it was 0 to 25%. For the same compound, the inhibition at 5 mg/kg on MAGL [5] and at FAAH [6] was 0 to 25% each time.

Usually pIC50 stands for the IC50 on a negative log10 scale, so that one unit is a factor of ten. Low readings indicate a large IC50, high ones a small IC50. Consider `O=C(O)c1nn(C(=O)N2CC3CN(Cc4ccc(N5CCCC5)cc4C(F)(F)F)CC3C2)cc1Cl` (centres unmarked) [Example 140, 4-chloro-1-(5-(4-(pyrrolidin-1-yl)-2-(trifluoromethyl)benzyl)octahydro-pyrrolo[3,4-c]pyrrole-2-carbonyl)-1H-pyrazole-3-carboxylic acid], for which the inhibition at 1 µM at MAGL [1] is more than 75%; at MAGL [2], more than 75%; on FAAH [3] it was 50 to 75%; on FAAH [4] it was 50 to 75%. At FAAH [3], this compound had a negative logarithm of the IC50 (pIC50) of 6.00 to 7.00. For the same compound, the inhibition at 5 mg/kg at MAGL [5] and on FAAH [6] was 0 to 25% throughout.

Regarding `O=C(O)c1ccn(C(=O)N2CCN(Cc3ccc(C(F)(F)F)cc3N3CCN(C4CC4)CC3)CC2)n1` [Example 6, 1-(4-(2-(4-Cyclopropylpiperazin-1-yl)-4-(trifluoromethyl)benzyl)piperazine-1-carbonyl)-1H-pyrazole-3-carboxylic Acid], the inhibition at 1 µM was more than 75% at MAGL [1], more than 75% on MAGL [2], 0 to 25% on FAAH [3] and 0 to 25% at FAAH [4]. Also, the inhibition at 5 mg/kg on MAGL [5] and at FAAH [6] was 0 to 25% each time.

Regarding `O=C(O)c1nn(C(=O)N2CCC3(CCN(Cc4cc(Cl)ccc4C(F)(F)F)C3)CC2)cc1C(F)(F)F` [Example 148, 1-(2-(5-chloro-2-(trifluoromethyl)benzyl)-2,8-diazaspiro[4.5]decane-8-carbonyl)-4-(trifluoromethyl)-1H-pyrazole-3-carboxylic acid], the inhibition at 1 µM on MAGL [1], at MAGL [2], at FAAH [3] and on FAAH [4] was more than 75% in each case. Also, the negative-log IC50 (pIC50) on FAAH [3] was 6.00 to 7.00. The inhibition at 5 mg/kg fell in the range of 0 to 25% on MAGL [5] and 25 to 50% on FAAH [6].

In the case of `O=C(O)c1ccn(C(=O)N2CCN(Cc3ccc(C(F)(F)F)c(N4CCCC4)c3)CC2)n1` [Example 7, 1-(4-(3-(Pyrrolidin-1-yl)-4-(trifluoromethyl)benzyl)piperazine-1-carbonyl)-1H-pyrazole-3-carboxylic Acid], the inhibition at 1 µM on MAGL [1] was more than 75%; at MAGL [2], more than 75%; on FAAH [3], 0 to 25%; on FAAH [4], 0 to 25%. Further, the inhibition at 5 mg/kg on MAGL [5] and on FAAH [6] was 0 to 25% each time.

`O=C(O)c1ccn(C(=O)N2CCN(Cc3ccc(C(F)(F)F)c(-c4nccs4)c3)CC2)n1` [Example 8, 1-(4-(3-(Thiazol-2-yl)-4-(trifluoromethyl)benzyl)piperazine-1-carbonyl)-1H-pyrazole-3-carboxylic Acid]: the inhibition at 1 µM on MAGL [1] was more than 75%; on MAGL [2], more than 75%; at FAAH [3] it was 0 to 25%; on FAAH [4], 0 to 25%. Besides, the inhibition at 5 mg/kg on MAGL [5] and on FAAH [6] was 0 to 25% in each case.

As for `COC1CCN(c2cc(C(F)(F)F)ccc2CN2CCN(C(=O)n3ccc(C(=O)O)n3)CC2)CC1` [Example 12, 1-(4-(2-(4-Methoxypiperidin-1-yl)-4-(trifluoromethyl)benzyl)piperazine-1-carbonyl)-1H-pyrazole-3-carboxylic Acid], the inhibition at 1 µM is more than 75% on MAGL [1], more than 75% at MAGL [2], 0 to 25% at FAAH [3] and 0 to 25% at FAAH [4]. Further, the inhibition at 5 mg/kg at MAGL [5] and on FAAH [6] was 0 to 25% throughout.

On to `C[C@H]1CCCN1c1cc(C(F)(F)F)ccc1CN1CCN(C(=O)n2ccc(C(=O)O)n2)CC1` [Example 104, (S)-1-(4-(2-(2-methylpyrrolidin-1-yl)-4-(trifluoromethyl)benzyl)piperazine-1-carbonyl)-1H-pyrazole-3-carboxylic acid], for which the inhibition at 1 µM at MAGL [1] is more than 75%; on MAGL [2], more than 75%; on FAAH [3], 0 to 25%; on FAAH [4], 0 to 25%. For the same compound, the inhibition at 5 mg/kg at MAGL [5] and on FAAH [6] was 0 to 25% in each case.

With `CN(Cc1ccc(C(F)(F)F)cc1N1CCOCC1)C1(C)CCN(C(=O)n2ccc(C(=O)O)n2)CC1` [Example 4, 1-(4-Methyl-4-(methyl(2-morpholino-4-(trifluoromethyl)benzyl)amino)piperidine-1-carbonyl)-1H-pyrazole-3-carboxylic Acid], the inhibition at 1 µM on MAGL [1] was more than 75%; on MAGL [2] it was more than 75%; on FAAH [3], 0 to 25%; on FAAH [4], 0 to 25%. The inhibition at 5 mg/kg on MAGL [5] and at FAAH [6] was 0 to 25% in each case.
